From US9776979B2, “EBI2 modulators” (Sanford-Burnham Medical Research Institute, priority 2013, dated 2017)

target: EBI2 (Homo sapiens, UniProt P32249); assay: Cell-based luminescent assay (EBI2 modulation); conditions: not given
Procedure, shortened: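 Cells plated overnight at 37° C, then exposed to compound at 4-5 uM final with 80 nM 7a,25-OHC agonist for 60 min at 37° C. Luminescence read after 60 min detection at 25° C in the dark; values normalized to neutral and stimulator controls and plate-pattern corrected.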

Chain of EBI2 (P32249 whole entry): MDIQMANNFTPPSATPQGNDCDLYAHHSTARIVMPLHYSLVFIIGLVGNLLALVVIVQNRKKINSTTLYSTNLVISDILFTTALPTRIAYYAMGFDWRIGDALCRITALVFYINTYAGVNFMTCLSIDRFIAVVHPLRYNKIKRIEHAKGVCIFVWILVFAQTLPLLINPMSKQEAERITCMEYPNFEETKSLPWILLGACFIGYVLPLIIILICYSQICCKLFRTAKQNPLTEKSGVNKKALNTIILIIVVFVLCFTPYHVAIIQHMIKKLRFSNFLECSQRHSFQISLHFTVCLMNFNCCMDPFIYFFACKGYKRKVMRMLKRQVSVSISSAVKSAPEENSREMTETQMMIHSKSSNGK

Question: With O=C(c1cc2cc(Cl)ccc2[nH]1)N1CCC(Nc2cc(F)cc(F)c2)CC1 [Compound C273, 4-[(3,5-difluorophenyl)amino]piperidyl 5-chloroindol-2-yl ketone] as the compound, how does the IC50 read?
Answer: < 100 nM

same assay, conditions: cell-based luminescence; 7a,25-OHC final assay concentration 80 nM; 60 minutes incubation; read-out: IC50

Question: How did the IC50 turn out when O=C(/C=C/c1ccc(F)cc1)N1CCCN(C(c2ccccc2)c2ccccc2)CC1 [Compound C192, (2E)-1-[4-(diphenylmethyl)(1,4-diazaperhydroepinyl)]-3-(4-fluorophenyl)prop-2-en-1-one] was run?
Answer: 500 to 5000 nM

Question: For O=C(/C=C/c1ccc(F)cc1)N1CCN(S(=O)(=O)c2cccs2)CC1 [Compound C367, (2E)-3-(4-fluorophenyl)-1-[4-(2-thienylsulfonyl)piperazinyl]prop-2-en-1-one], which IC50 is on record?
Answer: < 100 nM

Question: Which IC50 does the source give for Cc1ccccc1/C=C/C(=O)N1CCN(C(c2ccccc2)c2ccccc2)CC1 [Compound C241, (2E)-1-[4-(diphenylmethyl)piperazinyl]-3-(2-methylphenyl)prop-2-en-1-one] here?
Answer: < 100 nM

Question: With O=C(c1cc2cc(Cl)ccc2[nH]1)N1CCN(c2ccccn2)CC1 [Compound C182, 5-chloroindol-2-yl 4-(2-pyridyl)piperazinyl ketone] as the compound, how does the IC50 read?
Answer: 500 to 5000 nM

Question: With COc1ccc(/C=C/C(=O)N2CCN(S(=O)(=O)c3ccc(Br)cc3)CC2)cc1 [Compound C146, (2E)-1-{4-[(4-bromophenyl)sulfonyl]piperazinyl}-3-(4-methoxyphenyl)prop-2-en-1-one] as the compound, how does the IC50 read?
Answer: < 100 nM

Question: For COc1ccc(C(=O)N2CCN(C(=O)C#Cc3ccc(F)cc3)CC2)cc1 [Compound C75, 3-(4-fluorophenyl)-1-{4-[(4-methoxyphenyl)carbonyl]piperazinyl}prop-2-yn-1-one], which IC50 is on record?
Answer: < 100 nM

Question: Cc1cc(C)cc(CN2CCN(C(=O)/C=C/c3ccc(Br)cc3)CC2)c1 [Compound C109, (2E)-1-{4-[(3,5-dimethylphenyl)methyl]piperazinyl}-3-(4-bromophenyl)prop-2-en-1-one] was tested. Which IC50 did it give?
Answer: < 100 nM

Question: Which IC50 does the source give for O=C(C=Cc1ccc2c(c1)OCO2)N1CCN(Cc2ccc(Br)cc2)CC1 [Compound C298, 3-(2H-benzo[3,4-d]1,3-dioxolan-5-yl)-1-{4-[(4-bromophenyl)methyl]piperazinyl}prop-2-en-1-one] here?
Answer: 100 to 500 nM

Question: Which IC50 does the source give for O=C(c1ccc(-c2nnn[nH]2)cc1)N1CCN(C(=O)c2cc3ccc(Br)cc3[nH]2)CC1 [Compound C310, 6-bromoindol-2-yl 4-[(4-(1H-1,2,3,4-tetraazol-5-yl)phenyl)carbonyl]piperazinyl ketone] here?
Answer: < 100 nM

Question: Cc1ccc2c(c1)cc(C(=O)N1CCN(C(c3ccccc3)c3ccccc3)CC1)n2C [Compound C105, 1,5-dimethylindol-2-yl 4-(diphenylmethyl)piperazinyl ketone] was tested. Which IC50 did it give?
Answer: < 100 nM

Question: With “4-(diphenylmethyl)piperazinyl 5-chlorobenzo[b]thiophen-2-yl ketone [Compound C36]” as the compound, how does the IC50 read?
Answer: < 100 nM

Question: With O=C(/C=C/c1ccc(Cl)c(Cl)c1)N1CCN(Cc2ccc(F)cc2)CC1 [Compound C210, (2E)-3-(3,4-dichlorophenyl)-1-{4-[(4-fluorophenyl)methyl]piperazinyl}prop-2-en-1-one] as the compound, how does the IC50 read?
Answer: < 100 nM

Question: Cc1ccc2[nH]c(C(=O)N3CCN(Cc4ccc(F)cc4)CC3)cc2c1 [Compound C219, 4-[(4-fluorophenyl)methyl]piperazinyl 5-methylindol-2-yl ketone] was tested. Which IC50 did it give?
Answer: < 100 nM

Question: For O=C(Nc1cccc(F)c1)C1CCN(C(=O)c2cc3cc(Cl)ccc3[nH]2)CC1 [Compound C417, {1-[(5-chloroindol-2-yl)carbonyl](4-piperidyl)}-N-(3-fluorophenyl)carboxamide], which IC50 is on record?
Answer: 100 to 500 nM

Question: O=C(c1ccc2nc(C(F)F)[nH]c2c1)N1CCN(C(c2ccccc2)c2ccccc2)CC1 [Compound C283, 2-(difluoromethyl)benzimidazol-5-yl 4-(diphenylmethyl)piperazinyl ketone] was tested. Which IC50 did it give?
Answer: 100 to 500 nM

Question: Which IC50 does the source give for CC(C)c1ccc2[nH]c(C(=O)N3CCN(C(c4ccccc4)c4ccccc4)CC3)cc2c1 [Compound C338, 4-(diphenylmethyl)piperazinyl 5-(methylethyl)indol-2-yl ketone] here?
Answer: < 100 nM

Question: With “(2E)-3-(4-bromophenyl)-1-{4-[({[3-fluoro-4-(trifluoromethyl)phenyl]methyl}amino)methyl]piperidyl} prop-2-en-1-one [Compound C121]” as the compound, how does the IC50 read?
Answer: < 100 nM

Question: How did the IC50 turn out when O=C(c1cnc2ccccc2c1)N1CCN(C(c2ccccc2)c2ccccc2)CC1 [Compound C125, 4-(diphenylmethyl)piperazinyl 3-quinolyl ketone] was run?
Answer: < 100 nM

Question: How did the IC50 turn out when O=C(C=Cc1ccc2c(c1)OCO2)N1CCN(C(=O)c2ccc(Br)cc2)CC1 [Compound C234, 3-(2H-benzo[3,4-d]1,3-dioxolan-5-yl)-1-{4-[(4-bromophenyl)carbonyl]piperazinyl}prop-2-en-1-one] was run?
Answer: < 100 nM

Question: Which IC50 does the source give for “3-(3,5-difluorophenyl)-1-(4-{[4-fluoro-2-(trifluoromethyl)phenyl]methyl}piperazinyl)prop-2-yn-1-one [Compound C422]” here?
Answer: 100 to 500 nM

Question: For O=C(c1cc2cc(C(F)(F)F)ccc2[nH]1)N1CCN(Cc2ccc(F)cc2)CC1 [Compound C211, 4-[(4-fluorophenyl)methyl]piperazinyl 5-(trifluoromethyl)indol-2-yl ketone], which IC50 is on record?
Answer: < 100 nM

Question: For O=C(/C=C/c1ccc(Br)cc1)N1CCN(C(=O)c2ccc(Cl)cc2)CC1 [Compound C1, (E)-3-(4-bromophenyl)-1-(4-(4-chlorobenzoyl)piperazin-1-yl) prop-2-en-1-one], which IC50 is on record?
Answer: < 100 nM

Question: With O=C(/C=C/c1ccc(Br)cc1)N1CCN(C(=O)c2ccc(P(=O)(O)O)cc2)CC1 [Compound C3, (E)-(4-(4-(3-(4-bromophenyl)acryloyl)piperazine-1-carbonyl)phenyl)phosphonic acid] as the compound, how does the IC50 read?
Answer: < 100 nM

Question: Which IC50 does the source give for CCOc1ccc(/C=C/C(=O)N2CCN(S(=O)(=O)c3ccc(C(C)=O)cc3)CC2)cc1 [Compound C307, 4-({4-[(2E)-3-(4-ethoxyphenyl)prop-2-enoyl]piperazinyl}sulfonyl)-1-acetylbenzene] here?
Answer: < 100 nM

Question: How did the IC50 turn out when CCN1CCN(C(=O)c2cc3cc(Cl)ccc3[nH]2)CC1 [Compound C295, 5-chloroindol-2-yl 4-ethylpiperazinyl ketone] was run?
Answer: 100 to 500 nM

Question: O=C(/C=C/c1ccc(F)cc1)N1CCN(S(=O)(=O)c2ccccc2)CC1 [Compound C205, (2E)-3-(4-fluorophenyl)-1-[4-(phenylsulfonyl)piperazinyl]prop-2-en-1-one] was tested. Which IC50 did it give?
Answer: < 100 nM

Question: With “4,6-dichloroindol-2-yl 4-(diphenylmethyl)piperazinyl ketone [Compound C250]” as the compound, how does the IC50 read?
Answer: < 100 nM

Question: O=C(Nc1cccc(F)c1)N1CCN(C(=O)c2cc3cc(Cl)ccc3[nH]2)CC1 [Compound C451, {4-[(5-chloroindol-2-yl)carbonyl]piperazinyl}-N-(3-fluorophenyl)carboxamide] was tested. Which IC50 did it give?
Answer: 100 to 500 nM

Question: For N#Cc1ccccc1S(=O)(=O)N1CCN(C(=O)/C=C/c2ccc(F)cc2)CC1 [Compound C341, 2-({4-[(2E)-3-(4-fluorophenyl)prop-2-enoyl]piperazinyl}sulfonyl)benzenecarbonitrile], which IC50 is on record?
Answer: < 100 nM

Question: Which IC50 does the source give for O=C(/C=C/c1ccccc1)N1CCN(CCc2ccc(Cl)cc2)CC1 [Compound C270, (2E)-1-{4-[2-(4-chlorophenyl)ethyl]piperazinyl}-3-phenylprop-2-en-1-one] here?
Answer: < 100 nM

Question: “3-(2,3-dichlorophenyl)-1-{4-[(4-chlorophenyl)methyl]piperazinyl}prop-2-yn-1-one [Compound C275]” was tested. Which IC50 did it give?
Answer: < 100 nM
